Results as given in US9861694B2, “EGFR antagonist for the treatment of heart disease” (priority 2010, dated 2018).

Assays:
[1] = test system: adult cardiac myofibroblasts; test: Collagen I synthesis by PINP ELISA in conditioned media of treated cardiac myofibroblasts; type: cell-based, mice; settings: for decrease in collagen I synthesis: 10 ng/ml EGF, 24 hours
Procedure: (§1) Cardiac myofibroblast cultures were prepared from ventricles of WT and TIMP-3^−/− mice as previously described. Briefly, hearts were aseptically isolated from adult mice. The ventricles were minced and digested with collagenase and disapase. Fibroblasts subcultured for 2 generations were seeded on culture plates and used for all in vitro experiments. After 2 passages virtually all fibroblasts differentiate into myofibroblasts. Purity of myofibroblasts was verified by FSP-1 and α-smooth muscle actin double staining. Cell proliferation was assessed by Ki67 and FSP-1 double staining.
(§2) To determine the effect of EGF and TGF-β1 on collagen expression and synthesis, adult cardiac myofibroblasts subcultured for 2 generations were placed in low serum (5% FBS) for 24 hours and subsequently treated with either recombinant mouse EGF (rEGF, R&D […], CA) in DMEM containing 5% FBS and cultured for another 24 hours or with TGF-β1 (Millipore, Mass.) and cultured for another 48 hours. Cells were then harvested and experiments were conducted.
Collagen I synthesis was assessed in the LV myocardium and in conditioned media collected for cultured myofibroblasts using a rat/mouse procollagen I N-terminal peptide (PINP) ELISA kit (IDS-Medicorp, Quebec) according to the manufacturer's instructions. The LV tissues of sham mice and the infarct regions of WT and TIMP-3^−/− mice 5 days post-MI were homogenized in PBS and centrifuged. The supernatant was then collected and protein concentrations were measured. For tissues, 25 μg of total protein was used, while for media, 10 μL of conditioned media was used in the assay. Measurements of absorbances were made using SpectraMax M5 microplate reader at a wavelength of 450 nm. Values are expressed as either ng collagen per mg myocardial tissue or ng/ml conditioned media.

[2] = test system: adult cardiac myofibroblasts; test: Collagen I/III and TGF-β1 expression by real-time RT-PCR in treated cardiac myofibroblasts; type: cell-based, mice; settings: for decrease in TGF-β1 levels / decrease in collagen I expression / decrease in collagen III expression: 10 ng/ml EGF, 24 hours
Procedure: as §1, §2
Total RNA was extracted from adult cultured myofibroblasts as well as LV tissue of WT and TIMP-3^−/− sham and the infarct region of MI mice 5 days post-surgery using Trizol as previously described. cDNA was synthesized using M-MLV reverse transcriptase (Invitrogen, ON). Real-time PCR was conducted using SYBR Green PCR Master Mix as per manufacturer's instructions (Applied Biological Materials, BC). 28S rRNA (house keeping gene) was used as a loading control since previous studies have shown that it is a reliable loading control especially for use in experiments with hypoxia and MI [13].

[3] = 10 ng/ml TGF-β1 (high concentration), 48 hours, P<0.01

Substance	decrease in collagen I synthesis ([1]; TIMP-3−/− myofibroblasts) [%]	decrease in collagen I synthesis ([1]; WT myofibroblasts) [%]	effect on collagen I or III expression ([2]; 1 ng/ml EGF (low concentration))	decrease in TGF-β1 levels ([2]; TIMP-3−/− myofibroblasts) [%]	decrease in collagen I expression ([2]; TIMP-3−/− myofibroblasts) [%]	decrease in collagen III expression ([2]; TIMP-3−/− myofibroblasts) [%]	decrease in TGF-β1 levels ([2]; WT myofibroblasts) [%]	decrease in collagen I expression ([2]; WT myofibroblasts) [%]	decrease in collagen III expression ([2]; WT myofibroblasts) [%]	collagen I synthesis [1, 3]	collagen I and III expression ([2]; 1 ng/ml TGF-β1 (low concentration), 48 hours, P<0.05)	collagen I expression [2, 3]	effect on collagen III compared to controls ([2]; 10 ng/ml TGF-β1 (high concentration), 48 hours, P=n.s.)
EGF: recombinant mouse epidermal growth factor (rEGF) used to treat cardiac myofibroblasts	39	28	little effect	43	47	51	22	38	41				
TGF-β1: human recombinant transforming growth factor-beta 1 (Millipore) used to treat cardiac myofibroblasts										further increase	significant increase	further increase	no effect
